Experimental data from PubChem BioAssay AID1918935 (Molecular Pharmacology Branch, DTP, NCI, 2023).
“And” between values parts separate entries of the source, which are not always exact repeats. Equal values may be shown once. One block for each molecule: values may come before it.

Tested on: 324938-238-R-J1-PDC complex spheroid viability
Assay: Anticancer human tumor 324938-238-R-J1-PDC patient-derived bladder carcinoma cell line growth inhibition
Settings: for viability, T/C: stronger effect = lower value
Procedure, shortened: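 Multicellular complex spheroids of tumor cells with human endothelial cells (HUVEC) and mesenchymal stem cells; the LSD1 inhibitor iadademstat was combined with standard-of-care or investigational agents. Top concentration at or near clinical Cmax, half-log dilutions; final DMSO ≤0.25%.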

[1] = curve of first compound, second compound 0.1 µM
[2] = curve of first compound, second compound 0.316 µM
[3] = curve of first compound, second compound 1 µM
[4] = curve of first compound, second compound 3.16 µM
[5] = curve of first compound, second compound 10 µM
[6] = second compound 0.1 µM, first compound 0.000316 µM
[7] = second compound 0.1 µM, first compound 0.001 µM
[8] = second compound 0.1 µM, first compound 0.00316 µM
[9] = second compound 0.1 µM, first compound 0.01 µM
[10] = second compound 0.1 µM, first compound 0.0316 µM
[11] = second compound 0.1 µM, first compound 0.1 µM
[12] = second compound 0.316 µM, first compound 0.000316 µM
[13] = second compound 0.316 µM, first compound 0.001 µM
[14] = second compound 0.316 µM, first compound 0.00316 µM
[15] = second compound 0.316 µM, first compound 0.01 µM
[16] = second compound 0.316 µM, first compound 0.0316 µM
[17] = second compound 0.316 µM, first compound 0.1 µM
[18] = second compound 1 µM, first compound 0.000316 µM
[19] = second compound 1 µM, first compound 0.001 µM
[20] = second compound 1 µM, first compound 0.00316 µM
[21] = second compound 1 µM, first compound 0.01 µM
[22] = second compound 1 µM, first compound 0.0316 µM
[23] = second compound 1 µM, first compound 0.1 µM
[24] = second compound 3.16 µM, first compound 0.000316 µM
[25] = second compound 3.16 µM, first compound 0.001 µM
[26] = second compound 3.16 µM, first compound 0.00316 µM
[27] = second compound 3.16 µM, first compound 0.01 µM
[28] = second compound 3.16 µM, first compound 0.0316 µM
[29] = second compound 3.16 µM, first compound 0.1 µM
[30] = second compound 10 µM, first compound 0.000316 µM
[31] = second compound 10 µM, first compound 0.001 µM
[32] = second compound 10 µM, first compound 0.00316 µM
[33] = second compound 10 µM, first compound 0.01 µM
[34] = second compound 10 µM, first compound 0.0316 µM
[35] = second compound 10 µM, first compound 0.1 µM
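Further: spheroids also contain HUVEC and human MSCs and agents combined with iadademstat; spheroids exposed to agents for 7 days before readout.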

SMILES: CC[C@@]1(O)C(=O)OCc2c1cc1n(c2=O)Cc2cc3c(CN(C)C)c(O)ccc3nc2-1 + NC1CCC(NC2CC2c2ccccc2)CC1
IC50 [1]: 1.54 nM | IC50 [2]: 1.49 nM | IC50 [3]: 1.58 nM | IC50 [4]: 1.42 nM | IC50 [5]: 1.16 nM | viability, T/C [6]: 84.7% | viability, T/C [7]: 64.7% | viability, T/C [8]: 25.5% | viability, T/C [9]: 9.38% | viability, T/C [10]: 7.9% | viability, T/C [11]: 8.7% | viability, T/C [12]: 82.5% | viability, T/C [13]: 63.2% | viability, T/C [14]: 25.3% | viability, T/C [15]: 9.31% | viability, T/C [16]: 9.04% | viability, T/C [17]: 8.45% | viability, T/C [18]: 83.2% | viability, T/C [19]: 66.3% | viability, T/C [20]: 25.4% | viability, T/C [21]: 8.84% | viability, T/C [22]: 9.27% | viability, T/C [23]: 8.86% | viability, T/C [24]: 74.5% | viability, T/C [25]: 61.1% | viability, T/C [26]: 24.9% | viability, T/C [27]: 10.1% | viability, T/C [28]: 8.96% | viability, T/C [29]: 9.71% | viability, T/C [30]: 74.2% | viability, T/C [31]: 53.7% | viability, T/C [32]: 23.9% | viability, T/C [33]: 9.28% | viability, T/C [34]: 9.85% | viability, T/C [35]: 9.19%

IC50 (curve of compound): 1760 nM and 853 nM
SMILES: CC1COCCN1c1cc(C2(S(C)(=N)=O)CC2)nc(-c2ccnc3[nH]ccc23)n1 (configuration not stated)
viability, T/C (compound 0.0316 µM): 104% and 97.9% | viability, T/C (compound 0.1 µM): 101% and 108% | viability, T/C (compound 0.316 µM): 98.3% and 78.8% | viability, T/C (compound 1 µM): 71.4% and 44.7% | viability, T/C (compound 3.16 µM): 27.9% and 21.4% | viability, T/C (compound 10 µM): 14.6% and 8.79%

SMILES: CC(C)CC(NC(=O)C(Cc1ccccc1)NC(=O)c1cnccn1)B(O)O (configuration not stated) + NC1CCC(NC2CC2c2ccccc2)CC1
IC50 [1]: 0.472 nM | IC50 [2]: 0.443 nM | IC50 [3]: 0.483 nM | IC50 [4]: 0.442 nM | IC50 [5]: 0.434 nM | viability, T/C [6]: 66.8% | viability, T/C [7]: 18.7% | viability, T/C [8]: 0.06% | viability, T/C [9]: 0.03% | viability, T/C [10]: 0.03% | viability, T/C [11]: 0.15% | viability, T/C [12]: 64.9% | viability, T/C [13]: 14.3% | viability, T/C [14]: 0.14% | viability, T/C [15]: 0.01% | viability, T/C [16]: 0.02% | viability, T/C [17]: 0.12% | viability, T/C [18]: 72.2% | viability, T/C [19]: 12.1% | viability, T/C [20]: 0.1% | viability, T/C [21]: 0.01% | viability, T/C [22]: 0.73% | viability, T/C [23]: 0.11% | viability, T/C [24]: 65% | viability, T/C [25]: 13.8% | viability, T/C [26]: 0.43% | viability, T/C [27]: 0.02% | viability, T/C [28]: 0.03% | viability, T/C [29]: 0.12% | viability, T/C [30]: 65% | viability, T/C [31]: 10.8% | viability, T/C [32]: 0.12% | viability, T/C [33]: 0.29% | viability, T/C [34]: 0.1% | viability, T/C [35]: 0.17%

SMILES: Cn1ncnc1C1c2n[nH]c(=O)c3cc(F)cc(c23)NC1c1ccc(F)cc1 (configuration not stated) + NC1CCC(NC2CC2c2ccccc2)CC1
IC50 [1]: > 100 nM | IC50 [2]: > 100 nM | IC50 [3]: > 100 nM | IC50 [4]: 79.7 nM | IC50 [5]: 73.8 nM | viability, T/C [6]: 75.7% | viability, T/C [7]: 81.6% | viability, T/C [8]: 66.8% | viability, T/C [9]: 64.1% | viability, T/C [10]: 63.1% | viability, T/C [11]: 50.8% | viability, T/C [12]: 95% | viability, T/C [13]: 86.9% | viability, T/C [14]: 73.8% | viability, T/C [15]: 66.3% | viability, T/C [16]: 65.4% | viability, T/C [17]: 55.8% | viability, T/C [18]: 70.3% | viability, T/C [19]: 71.1% | viability, T/C [20]: 77.2% | viability, T/C [21]: 73% | viability, T/C [22]: 59.8% | viability, T/C [23]: 52.6% | viability, T/C [24]: 68.1% | viability, T/C [25]: 77.6% | viability, T/C [26]: 74.7% | viability, T/C [27]: 66.8% | viability, T/C [28]: 58.4% | viability, T/C [29]: 48.1% | viability, T/C [30]: 66.2% | viability, T/C [31]: 72.7% | viability, T/C [32]: 71.8% | viability, T/C [33]: 65% | viability, T/C [34]: 54.7% | viability, T/C [35]: 48.3%

SMILES: O=C(C=Cc1cccc(S(=O)(=O)Nc2ccccc2)c1)NO + NC1CCC(NC2CC2c2ccccc2)CC1
IC50 [1]: 103 nM | IC50 [2]: 101 nM | IC50 [3]: 41.7 nM | IC50 [4]: 47.2 nM | IC50 [5]: 10.4 nM | viability, T/C (second compound 0.1 µM, first compound 0.00949 µM): 68% | viability, T/C (second compound 0.1 µM, first compound 0.03 µM): 59.9% | viability, T/C (second compound 0.1 µM, first compound 0.0949 µM): 51.5% | viability, T/C (second compound 0.1 µM, first compound 0.3 µM): 37.4% | viability, T/C (second compound 0.1 µM, first compound 0.949 µM): 26.7% | viability, T/C (second compound 0.1 µM, first compound 3 µM): 7.18% | viability, T/C (second compound 0.316 µM, first compound 0.00949 µM): 61.6% | viability, T/C (second compound 0.316 µM, first compound 0.03 µM): 63.2% | viability, T/C (second compound 0.316 µM, first compound 0.0949 µM): 50.4% | viability, T/C (second compound 0.316 µM, first compound 0.3 µM): 34.6% | viability, T/C (second compound 0.316 µM, first compound 0.949 µM): 25.9% | viability, T/C (second compound 0.316 µM, first compound 3 µM): 5.69% | viability, T/C (second compound 1 µM, first compound 0.00949 µM): 64.6% | viability, T/C (second compound 1 µM, first compound 0.03 µM): 49.9% | viability, T/C (second compound 1 µM, first compound 0.0949 µM): 40.8% | viability, T/C (second compound 1 µM, first compound 0.3 µM): 32.1% | viability, T/C (second compound 1 µM, first compound 0.949 µM): 26% | viability, T/C (second compound 1 µM, first compound 3 µM): 3.87% | viability, T/C (second compound 3.16 µM, first compound 0.00949 µM): 65.3% | viability, T/C (second compound 3.16 µM, first compound 0.03 µM): 53.5% | viability, T/C (second compound 3.16 µM, first compound 0.0949 µM): 40% | viability, T/C (second compound 3.16 µM, first compound 0.3 µM): 33.8% | viability, T/C (second compound 3.16 µM, first compound 0.949 µM): 24.7% | viability, T/C (second compound 3.16 µM, first compound 3 µM): 4.61% | viability, T/C (second compound 10 µM, first compound 0.00949 µM): 52.7% | viability, T/C (second compound 10 µM, first compound 0.03 µM): 47.2% | viability, T/C (second compound 10 µM, first compound 0.0949 µM): 42.2% | viability, T/C (second compound 10 µM, first compound 0.3 µM): 34.4% | viability, T/C (second compound 10 µM, first compound 0.949 µM): 30.8% | viability, T/C (second compound 10 µM, first compound 3 µM): 3.5%

SMILES: CC1(C)CCC(CN2CCN(c3ccc(C(=O)NS(=O)(=O)c4ccc(NCC5CCOCC5)c([N+](=O)[O-])c4)c(Oc4cnc5[nH]ccc5c4)c3)CC2)=C(c2ccc(Cl)cc2)C1 + NC1CC1c1ccc(-c2cccc(O)c2)cc1
IC50 [1]: 3960 nM | IC50 [2]: 4480 nM | IC50 [3]: 3960 nM | IC50 [4]: 4190 nM | IC50 [5]: 2230 nM | viability, T/C [10]: 94.5% | viability, T/C [11]: 91.3% | viability, T/C (second compound 0.1 µM, first compound 0.316 µM): 91.7% | viability, T/C (second compound 0.1 µM, first compound 1 µM): 71% | viability, T/C (second compound 0.1 µM, first compound 3.16 µM): 61.5% | viability, T/C (second compound 0.1 µM, first compound 10 µM): 17.3% | viability, T/C [16]: 72% | viability, T/C [17]: 74.9% | viability, T/C (second compound 0.316 µM, first compound 0.316 µM): 73.2% | viability, T/C (second compound 0.316 µM, first compound 1 µM): 66.5% | viability, T/C (second compound 0.316 µM, first compound 3.16 µM): 64.2% | viability, T/C (second compound 0.316 µM, first compound 10 µM): 19.8% | viability, T/C [22]: 78.4% | viability, T/C [23]: 74.6% | viability, T/C (second compound 1 µM, first compound 0.316 µM): 66.4% | viability, T/C (second compound 1 µM, first compound 1 µM): 69.8% | viability, T/C (second compound 1 µM, first compound 3.16 µM): 58.5% | viability, T/C (second compound 1 µM, first compound 10 µM): 19.8% | viability, T/C [28]: 70.9% | viability, T/C [29]: 68.3% | viability, T/C (second compound 3.16 µM, first compound 0.316 µM): 68.1% | viability, T/C (second compound 3.16 µM, first compound 1 µM): 74.3% | viability, T/C (second compound 3.16 µM, first compound 3.16 µM): 59.6% | viability, T/C (second compound 3.16 µM, first compound 10 µM): 20.3% | viability, T/C [34]: 70.5% | viability, T/C [35]: 67.6% | viability, T/C (second compound 10 µM, first compound 0.316 µM): 66.3% | viability, T/C (second compound 10 µM, first compound 1 µM): 56.8% | viability, T/C (second compound 10 µM, first compound 3.16 µM): 47.9% | viability, T/C (second compound 10 µM, first compound 10 µM): 17.8%
